The source of these data is patent US20240059691A1 (KALVISTA PHARMACEUTICALS LIMITED, priority 2020, published 2024).

Test [1] concerns the target Human Factor XIIa (Homo sapiens (Human), UniProt P00748). Nature of the test: Determination of FXIIa inhibition (fluorogenic substrate H-DPro-Phe-Arg-AFC, IC50 assay). As to conditions: substrate H-DPro-Phe-Arg-AFC at Km, 25° C.; class scale A-G. It is filed as biochemical. A digest of the protocol:
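Human FXIIa incubated at 25° C with fluorogenic substrate H-DPro-Phe-Arg-AFC at its Km concentration and varying compound concentrations. Fluorescence release monitored over 5 min at 25° C; linear rate expressed as % of uninhibited activity to derive IC50.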

The target of test [2] is Plasma Kallikrein (Homo sapiens (Human), UniProt P03952). Nature of the test: Determination of related protease inhibition: Plasma Kallikrein (fluorogenic substrate at Km). The class given is biochemical. As to conditions: 25° C., read-out: IC50 (human PKal). A digest of the protocol: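 Human protease + fluorogenic substrate (at Km) + test cpd, varied concns; fluorescence kinetic read 5 min, 25 °C. Linear slope → % activity vs uninhibited control; IC50 at 50% inhibition.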
Sequence of Plasma Kallikrein (P03952 391-638): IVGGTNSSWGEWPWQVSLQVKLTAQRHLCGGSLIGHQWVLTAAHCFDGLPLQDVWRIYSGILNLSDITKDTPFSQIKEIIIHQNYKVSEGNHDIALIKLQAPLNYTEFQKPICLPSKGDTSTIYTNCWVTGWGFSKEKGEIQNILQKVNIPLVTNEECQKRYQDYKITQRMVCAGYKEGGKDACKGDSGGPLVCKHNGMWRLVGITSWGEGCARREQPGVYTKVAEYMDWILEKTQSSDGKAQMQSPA
Sequence of Plasma Kallikrein (P03952 20-390 partner): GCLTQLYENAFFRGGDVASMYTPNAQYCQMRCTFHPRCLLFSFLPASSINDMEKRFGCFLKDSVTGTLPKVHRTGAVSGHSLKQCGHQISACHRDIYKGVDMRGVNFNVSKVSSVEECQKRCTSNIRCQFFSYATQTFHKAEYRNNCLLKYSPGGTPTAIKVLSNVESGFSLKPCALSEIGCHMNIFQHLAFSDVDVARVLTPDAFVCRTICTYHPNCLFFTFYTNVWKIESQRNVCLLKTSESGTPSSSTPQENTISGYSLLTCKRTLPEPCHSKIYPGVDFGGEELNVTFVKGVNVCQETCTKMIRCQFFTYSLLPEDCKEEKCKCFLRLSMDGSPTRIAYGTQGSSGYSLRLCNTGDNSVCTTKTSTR

SMILES strings stand for the structures.

Sequence of Human Factor XIIa (P00748 373-615): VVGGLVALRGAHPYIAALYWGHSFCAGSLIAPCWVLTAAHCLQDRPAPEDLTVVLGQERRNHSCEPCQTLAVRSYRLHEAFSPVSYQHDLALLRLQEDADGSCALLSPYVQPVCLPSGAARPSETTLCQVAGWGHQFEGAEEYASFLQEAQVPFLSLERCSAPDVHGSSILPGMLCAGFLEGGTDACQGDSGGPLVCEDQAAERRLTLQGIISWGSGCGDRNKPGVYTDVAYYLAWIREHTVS

For the compound `Nc1nccc2c(N3CCCC3c3ccc(N4CCn5c(nnc5C(F)F)C4)nc3)cccc12` (stereo not drawn) [Example 10001, 5-(2-(6-(3-(difluoromethyl)-5,6-dihydro-[1,2,4]triazolo[4,3-a]pyrazin-7(8H)-yl)pyridin-3-yl)pyrrolidin-1-yl)isoquinolin-1-amine], the values for the IC50 in test [1] and in test [2] were 1 to 3 µM and greater than 40 µM, respectively.

On to `CN1CCC(COc2cc(CNc3ccc4ncc(=O)[nH]c4c3)ccn2)CC1` [Example 4456], for which the concentration for half-maximal inhibition (IC50) lay within 40 to 100 µM in test [1] and 10 to 40 µM in test [2].

As for `Nc1nccc2c(NCc3ccc(N4CCn5nccc5C4)nc3)cccc12` [Example 1156, N5-((6-(6,7-dihydropyrazolo[1,5-a]pyrazin-5(4H)-yl)pyridin-3-yl)methyl)isoquinoline-1,5-diamine], the IC50 in test [1] was 10 to 40 µM; in test [2] it was greater than 40 µM.

With `COc1cc(NCc2ccnc(OCC3CCN(C)CC3)c2)cc2ccncc12` [Example 4462, 8-methoxy-N-((2-((1-methylpiperidin-4-yl)methoxy)pyridin-4-yl)methyl)isoquinolin-6-amine], the half-maximal inhibitory concentration (IC50) is 3 to 10 µM in test [1] and greater than 100 µM in test [2].

In the case of `CN1CCC(OCc2ccc(CN(C)c3ccc4c(N)nccc4c3)cc2)CC1` [Example 2190, N6-methyl-N6-(4-(((1-methylpiperidin-4-yl)oxy)methyl)benzyl)isoquinoline-1,6-diamine], the results for the IC50 in test [1] and in test [2] were 1 to 3 µM and 3 to 10 µM, respectively.

Regarding `Cc1cn2c(n1)CC(COc1cc(CNc3ccc4c(N)ncc(Cl)c4c3)ccn1)CC2` (stereo not drawn) [Example 4309, 4-chloro-6-N-{[2-({2-methyl-5H,6H,7H,8H-imidazo[1,2-a]pyridin-7-yl}methoxy)pyridin-4-yl]methyl}isoquinoline-1,6-diamine], the values for the 50% inhibitory concentration (IC50) in test [1] and in test [2] were 0.1 to 0.3 µM and greater than 4 µM, respectively.

For `Nc1nccc2c(NCc3ccc(N4Cc5nccn5CC4CO)nc3)cccc12` (stereo not drawn) [Example 1137, (7-(5-(((1-aminoisoquinolin-5-yl)amino)methyl)pyridin-2-yl)-5,6,7,8-tetrahydroimidazo[1,2-a]pyrazin-6-yl)methanol], the results for the half-inhibitory concentration (IC50) in test [1] and in test [2] were 1 to 3 µM and greater than 40 µM, respectively.

In the case of `FC(F)(F)c1nnc2n1CCN(c1ccc(CNc3ccc4cnccc4c3)cn1)C2` [Example 1283, N-((6-(3-(trifluoromethyl)-5,6-dihydro-[1,2,4]triazolo[4,3-a]pyrazin-7(8H)-yl)pyridin-3-yl)methyl)isoquinolin-6-amine], the figures for the IC50 in test [1] and in test [2] were 3 to 10 µM and greater than 40 µM, respectively.

With `Nc1nccc2c(NCc3ccc(N4CCC(CC(F)F)C4)nc3)cccc12` (stereo not drawn) [Example 1265, N5-((6-(3-(2,2-difluoroethyl)pyrrolidin-1-yl)pyridin-3-yl)methyl)isoquinoline-1,5-diamine], the IC50 is 3 to 10 µM in test [1] and greater than 40 µM in test [2].

`Nc1nccc2c(NCc3ccc(N4CC5(CC(O)c6nccn65)C4)cc3)cccc12` (stereo not drawn) [Example 2253, 1-(4-(((1-aminoisoquinolin-5-yl)amino)methyl)phenyl)-6′,7′-dihydrospiro[azetidine-3,5′-pyrrolo[1,2-a]imidazol]-7′-ol]: the IC50 in test [1] is 3 to 10 µM; in test [2], greater than 40 µM.

`CN1CCN(c2cc(CNc3cccc4c(N)nccc34)ccn2)CC1` [Example 4426, 5-N-{[2-(4-methylpiperazin-1-yl)pyridin-4-yl]methyl}isoquinoline-1,5-diamine]: the values for the IC50 in test [1] and in test [2] were 10 to 40 µM and greater than 40 µM, respectively.

In the case of `CN1CCC(COc2cc(CNc3ccc4cnccc4c3F)ccn2)CC1` [Example 4466, 5-fluoro-N-((2-((1-methylpiperidin-4-yl)methoxy)pyridin-4-yl)methyl)isoquinolin-6-amine], the half-maximal inhibitory concentration (IC50) in test [1] was 3 to 10 µM; in test [2], greater than 100 µM.

As to `CN1CCC(COc2cc(CNc3cnc4[nH]cc(C#N)c4c3)ccn2)CC1` [Example 4460], the IC50 was 40 to 100 µM in test [1] and greater than 100 µM in test [2].

For `Nc1ncc(Cl)c2cc(NCc3ccnc(OCC4CCn5ccnc5C4)c3)ccc12` (stereo not drawn) [Example 4300, 4-Chloro-N6-[[2-(5,6,7,8-tetrahydroimidazo[1,2-a]pyridin-7-ylmethoxy)-4-pyridyl]methyl]isoquinoline-1,6-diamine], the concentration for half-maximal inhibition (IC50) in test [1] is 0.1 to 0.3 µM; in test [2] it was 10 to 40 µM.

As to `CC(C)(O)c1cn2c(n1)CN(c1ccc(CNc3cccc4c(N)nccc34)cn1)CC2` [Example 1163, 2-(7-(5-(((1-aminoisoquinolin-5-yl)amino)methyl)pyridin-2-yl)-5,6,7,8-tetrahydroimidazo[1,2-a]pyrazin-2-yl)propan-2-ol], the figures for the IC50 in test [1] and in test [2] were 3 to 10 µM and greater than 40 µM, respectively.

As for `Cc1cc2c(NCc3ccc(OCC4CCN(C)CC4)nc3)ccnc2[nH]1` [Example 1249, 2-methyl-N-((6-((1-methylpiperidin-4-yl)methoxy)pyridin-3-yl)methyl)-1H-pyrrolo[2,3-b]pyridin-4-amine], the IC50 was 0.3 to 1 µM in test [1] and greater than 40 µM in test [2].

With `Nc1nccc2c(NCc3ccnc(N4CCn5ccnc5C4)c3)cccc12` [Example 5436, N5-((2-(5,6-dihydroimidazo[1,2-a]pyrazin-7(8H)-yl)pyridin-4-yl)methyl)isoquinoline-1,5-diamine], the half-inhibitory concentration (IC50) in test [1] is 10 to 40 µM; in test [2], greater than 40 µM.

For the compound `CN1CCC(CNc2ccc(CNc3ccncc3)cn2)CC1` [Example 1258, N-((1-methylpiperidin-4-yl)methyl)-5-((pyridin-4-ylamino)methyl)pyridin-2-amine], the results for the half-inhibitory concentration (IC50) in test [1] and in test [2] were 10 to 40 µM and greater than 40 µM, respectively.

In the case of `Nc1ncc(Cl)c2cc(NCc3ccnc(OCC4CCCn5ccnc54)c3)ccc12` (single isomer, unassigned) [Example 4451, (R*)-4-chloro-N6-((2-((5,6,7,8-tetrahydroimidazo[1,2-a]pyridin-8-yl)methoxy)pyridin-4-yl)methyl)isoquinoline-1,6-diamine], the values for the IC50 in test [1] and in test [2] were 0.3 to 1 µM and greater than 40 µM, respectively.

Regarding `Nc1ncc(Cl)c2cc(NCc3ccnc(OCC4CCn5ccnc5C4)c3)ccc12` (single isomer, unassigned) [Example 4439, (R*)-4-chloro-N6-((2-((5,6,7,8-tetrahydroimidazo[1,2-a]pyridin-7-yl)methoxy)pyridin-4-yl)methyl)isoquinoline-1,6-diamine], the figures for the half-maximal inhibitory concentration (IC50) in test [1] and in test [2] were 0.1 to 0.3 µM and 10 to 40 µM, respectively.

Take `CC(C)N1CCC(OCc2ccc(CNc3ccc4c(N)nccc4c3)c(F)c2)CC1` [Example 2216, 6-N-[(2-fluoro-4-{[(1-isopropylpiperidin-4-yl)oxy]methyl}phenyl)methyl]isoquinoline-1,6-diamine]: the IC50 in test [1] fell in the range of 0.1 to 0.3 µM; in test [2], 1 to 3 µM.

As to `Nc1ncc(Cl)c2cc(NCc3ccc(N4CCn5ccnc5C4)nc3)ccc12` [Example 1129, 4-chloro-6-N-[(6-{5H,6H,8H-imidazo[1,2-a]pyrazin-7-yl}pyridin-3-yl)methyl]isoquinoline-1,6-diamine], the IC50 in test [1] was 3 to 10 µM; in test [2], greater than 40 µM.

With `Nc1nccc2c(NCc3ccc(N4Cc5nccn5C(CO)C4)nc3)cccc12` (stereo not drawn) [Example 1133, (7-(5-(((1-aminoisoquinolin-5-yl)amino)methyl)pyridin-2-yl)-5,6,7,8-tetrahydroimidazo[1,2-a]pyrazin-5-yl)methanol], the IC50 was 3 to 10 µM in test [1] and greater than 40 µM in test [2].

Consider `Nc1ncc(Cl)c2cc(NCc3ccnc(OCC4CCn5c(CO)cnc5C4)c3)ccc12` (stereo not drawn) [Example 4448, (7-(((4-(((1-amino-4-chloroisoquinolin-6-yl)amino)methyl)pyridin-2-yl)oxy)methyl)-5,6,7,8-tetrahydroimidazo[1,2-a]pyridin-3-yl)methanol], for which the results for the half-maximal inhibitory concentration (IC50) in test [1] and in test [2] were 0.3 to 1 µM and greater than 40 µM, respectively.

Regarding `Nc1nccc2c(NCc3ccnc(OCC4CCn5ccnc5C4)c3)cccc12` (single isomer, unassigned) [Example 4431, (R*)-N5-((2-((5,6,7,8-tetrahydroimidazo[1,2-a]pyridin-7-yl)methoxy)pyridin-4-yl)methyl)isoquinoline-1,5-diamine], the IC50 in test [1] is 0.1 to 0.3 µM; in test [2] it was greater than 4 µM.

In the case of `Cc1cnc2n1CCC(COc1cc(CNc3cccc4c(N)nccc34)ccn1)C2` (single isomer, unassigned) [Example 4445, (R*)-N5-((2-((3-methyl-5,6,7,8-tetrahydroimidazo[1,2-a]pyridin-7-yl)methoxy)pyridin-4-yl)methyl)isoquinoline-1,5-diamine], the 50% inhibitory concentration (IC50) in test [1] lay in the range of 0.1 to 0.3 µM; in test [2], 3 to 10 µM.

`CN1CCC(Oc2ccc(CNc3cnc4[nH]cc(Cl)c4c3)cc2)CC1` [Example 1004, 3-Chloro-N-(4-((1-methylpiperidin-4-yl)oxy)benzyl)-1H-pyrrolo[2,3-b]pyridin-5-amine]: the IC50 in test [1] is 10 to 40 µM; in test [2], greater than 40 µM.

As to `Nc1ncc(Cl)c2cc(NCc3ccnc(OCC4CCCn5ccnc54)c3)ccc12` (stereo not drawn) [Example 4443, 4-chloro-N6-((2-((5,6,7,8-tetrahydroimidazo[1,2-a]pyridin-8-yl)methoxy)pyridin-4-yl)methyl)isoquinoline-1,6-diamine], the IC50 in test [1] is 0.1 to 0.3 µM; in test [2] it was greater than 40 µM.

For `Nc1nccc2c(NCc3ccnc(OC4CCn5ccnc5C4)c3)cccc12` (stereo not drawn) [Example 4306, 5-N-[(2-{5H,6H,7H,8H-imidazo[1,2-a]pyridin-7-yloxy}pyridin-4-yl)methyl]isoquinoline-1,5-diamine], the half-inhibitory concentration (IC50) in test [1] was in the range of 1 to 3 µM; in test [2] it was 10 to 40 µM.

On to `CN1CCC(OCc2ccc(CNc3ccc4nc(N)ccc4c3)cc2)CC1` [Example 2187, N6-(4-(((1-methylpiperidin-4-yl)oxy)methyl)benzyl)quinoline-2,6-diamine], for which the concentration for half-maximal inhibition (IC50) in test [1] was in the range of 3 to 10 µM; in test [2], 10 to 40 µM.
